Test results reported in patent US5081284A, “Proteinase inhibitor” (Suntory Limited, priority 1989, dated 1992).
Like-named read-outs stand apart in the source and are kept apart here.

Legend:
papain = biological target: T1, papain (Carica papaya, UniProt P00784); experiment: Anti-papain activity (casein hydrolysis, Lowry-Folin method); format: biochemical
T1 sequence (P00784 134-345): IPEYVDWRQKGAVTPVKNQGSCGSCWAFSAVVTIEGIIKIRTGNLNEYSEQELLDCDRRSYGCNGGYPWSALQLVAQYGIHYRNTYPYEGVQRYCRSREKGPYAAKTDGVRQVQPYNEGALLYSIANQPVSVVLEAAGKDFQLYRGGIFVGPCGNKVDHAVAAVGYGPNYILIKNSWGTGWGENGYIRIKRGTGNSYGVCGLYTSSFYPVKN
Protocol: (§1) A mixture of a test compound of the present invention, papain (0.015 units) and a citrate buffer solution (20 mM, pH=6.2,1 ml) containing EDTA (0.88 mg) was preincubated at 30° C. for 5 minutes and a substrate solution (1 ml) was added to start the reaction. The substrate was a 1% solution of casein in the citrate buffer. The reaction was performed at 30° C. for 20 minutes. The reaction was quenched by adding 6.5% trichloroacetic acid (3 ml) to the reaction solution. The amount of casein that had been hydrolyzed enzymatically in the trichloroacetic acid soluble fraction was measured by the Lowry-Folin method and the inhibitory activity of the test compound was determined by comparison with the control solution.
as §1, with “pH=6.2, 1” for “pH=6.2,1”

calpain I = biological target: T2, calpain I (Homo sapiens, UniProt P07384); experiment: Anti-calpain activity, calpain I (casein hydrolysis, Ross-Schatz method); format: biochemical
T2 sequence (P07384 1-714): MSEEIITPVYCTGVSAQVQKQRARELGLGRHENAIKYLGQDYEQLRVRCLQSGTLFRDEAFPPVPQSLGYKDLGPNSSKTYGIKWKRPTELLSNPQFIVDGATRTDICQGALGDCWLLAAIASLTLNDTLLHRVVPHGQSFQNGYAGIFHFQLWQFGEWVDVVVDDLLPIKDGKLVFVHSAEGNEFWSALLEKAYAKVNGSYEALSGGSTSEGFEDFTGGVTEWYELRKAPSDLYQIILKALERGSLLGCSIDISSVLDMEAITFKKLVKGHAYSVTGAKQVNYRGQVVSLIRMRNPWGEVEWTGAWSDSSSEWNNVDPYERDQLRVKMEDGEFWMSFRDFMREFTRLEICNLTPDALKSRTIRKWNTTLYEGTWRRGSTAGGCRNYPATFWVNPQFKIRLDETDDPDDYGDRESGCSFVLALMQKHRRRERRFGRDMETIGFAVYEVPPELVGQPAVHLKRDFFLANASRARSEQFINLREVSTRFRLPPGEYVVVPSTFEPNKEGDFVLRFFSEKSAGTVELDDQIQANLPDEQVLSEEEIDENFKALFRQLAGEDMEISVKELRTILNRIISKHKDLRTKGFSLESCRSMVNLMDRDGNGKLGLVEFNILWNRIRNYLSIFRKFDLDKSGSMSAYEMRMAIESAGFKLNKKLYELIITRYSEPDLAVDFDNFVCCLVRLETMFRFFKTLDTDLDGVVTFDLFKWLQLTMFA
T2 sequence (P04632 1-268 partner): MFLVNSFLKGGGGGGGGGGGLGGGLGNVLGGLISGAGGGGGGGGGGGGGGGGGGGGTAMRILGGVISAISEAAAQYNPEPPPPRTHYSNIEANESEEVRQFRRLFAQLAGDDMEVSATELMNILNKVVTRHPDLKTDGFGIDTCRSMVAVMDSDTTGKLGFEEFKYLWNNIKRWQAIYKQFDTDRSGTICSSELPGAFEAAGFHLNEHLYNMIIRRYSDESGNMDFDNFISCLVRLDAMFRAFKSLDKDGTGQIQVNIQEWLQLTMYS

calpain II = biological target: T3, calpain II (Homo sapiens, UniProt P17655); experiment: Anti-calpain activity, calpain II (casein hydrolysis, Ross-Schatz method); format: biochemical
T3 sequence (P17655 1-700): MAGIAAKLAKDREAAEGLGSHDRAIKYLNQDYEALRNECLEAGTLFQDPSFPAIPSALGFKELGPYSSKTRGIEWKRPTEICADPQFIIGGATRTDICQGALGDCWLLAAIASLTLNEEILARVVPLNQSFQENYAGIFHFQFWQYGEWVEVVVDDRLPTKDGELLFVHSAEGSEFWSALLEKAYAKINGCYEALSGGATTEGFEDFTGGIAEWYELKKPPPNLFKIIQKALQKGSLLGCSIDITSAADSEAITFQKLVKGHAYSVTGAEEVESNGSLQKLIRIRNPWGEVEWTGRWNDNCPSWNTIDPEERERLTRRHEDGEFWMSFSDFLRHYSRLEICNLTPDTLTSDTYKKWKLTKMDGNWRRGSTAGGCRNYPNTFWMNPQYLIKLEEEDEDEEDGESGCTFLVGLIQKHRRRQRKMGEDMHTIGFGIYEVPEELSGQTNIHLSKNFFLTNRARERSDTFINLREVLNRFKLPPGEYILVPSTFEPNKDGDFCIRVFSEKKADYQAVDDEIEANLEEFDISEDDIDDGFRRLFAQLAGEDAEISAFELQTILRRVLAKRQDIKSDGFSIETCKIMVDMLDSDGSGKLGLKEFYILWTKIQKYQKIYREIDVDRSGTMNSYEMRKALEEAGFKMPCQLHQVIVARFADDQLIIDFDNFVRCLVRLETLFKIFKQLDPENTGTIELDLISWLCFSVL
T3 sequence (P04632 1-268 partner): T2 sequence (P04632 1-268 partner)

cathepsin B = cathepsin B (Bos taurus, UniProt P07688); experiment: Anti-cathepsin activity (cathepsin B, benzyloxycarbonyl-L-lysine-p-nitrophenyl ester substrate); format: biochemical, bovine
Protocol: A mixture of a test compound of the present invention and an acetate buffer solution (25 mM, pH=5.1, with 1 mM EDTA, 3.15 ml) containing a substrate (benzyloxycarbonyl-L-lysine-p-nitrophenyl ester, 0.114 mg) was preincubated at 30° C. for 1 minute. To the mixture, a solution (0.05 ml) of cathepsin B (derived from bovine spleen; product of Sigma; 0.05 units) in the acetate buffer was added to start the reaction. Immediately after the start of reaction, the change in absorbance at 326 nm was measured and the inhibitory activity of the test compound was determined by comparison with the control solution.

[1] = Table 5 (Example 29), pH 6.2, 30° C., 20 minutes, casein, read-out: Inhibitory activity toward papain, IC50
[2] = Table 6 (Example 29), pH 7.5, 30° C., 30 minutes, casein, read-out: Inhibitory activity toward calpain I, IC50
[3] = Table 7 (Example 29), pH 7.5, 30° C., 30 minutes, casein, read-out: Inhibitory activity toward calpain II, IC50
[4] = Table 8 (Example 29), pH 5.1, 30° C., from bovine spleen, read-out: Inhibitory activity toward cathepsin B, IC50

SMILES	IC50 (papain; [1]) [nM]	IC50 (calpain I; [2]) [nM]	IC50 (calpain II; [3]) [nM]	IC50 (cathepsin B; [4]) [nM]	IC50 (papain) [nM]	IC50 (calpain I) [nM]	IC50 (calpain II) [nM]	IC50 (cathepsin B) [nM]
CCCC[C@@H](C=O)NC(=O)[C@H](CC(C)C)NC(=O)OCc1ccc(OC)cc1 [Example 7, N-(p-methoxybenzyloxycarbonyl)-L-leucyl-L-norleucinal]	250	100	130	150	–	–	–	–
CCCC[C@@H](C=O)NC(=O)[C@H](CC(C)C)NC(=O)OCc1ccc([N+](=O)[O-])cc1 [Example 8, N-(p-nitrobenzyloxycarbonyl)-L-leucyl-L-norleucinal]	31	92	130	99	–	–	–	–
CCCC[C@@H](C=O)NC(=O)[C@H](CC(C)C)NC(=O)OCc1ccccc1Cl [Example 9, N-(o-chlorobenzyloxycarbonyl)-L-leucyl-L-norleucinal]	160	110	130	140	–	–	–	–
CCCC[C@@H](C=O)NC(=O)[C@H](CC(C)C)NP(=S)(c1ccccc1)c1ccccc1 [Example 14, N-diphenylphosphonothioyl-L-leucyl-L-norleucinal]	–	–	–	–	170	90	120	79
